Test results published in US8916586B2, “Anti-angiogenic compound” (University College Dublin—National University of Ireland, …, priority 2011, dated 2014).
Entries after “also recorded” stand apart in the source; their conditions may differ.

What was measured:
[1] = tested on: dermal-derived normal human microvascular endothelial cells (HMVEC-d); experiment: Crystal violet-based proliferation assay in HMVEC-d; format: cell-based; conditions: 100 nM (FIG. 13), 24 h
Method: HMVEC-d were purchased from Clonetics, San Diego, Calif., USA. Cells were maintained in complete Endothelial Cell Medium (Clonetics® EGM®-2-MV BulletKit®) containing 500 ml of Endothelial Cell Basal Medium-2 and supplemented with hEGF, 0.5 ml; Hydrocortisone, 0.2 ml; GA-1000, 0.5 ml; FBS, 25 ml; VEGF, 0.5 ml; hFGF-B, 2.0 ml; R3-IGF-1, 0.5 ml; Ascorbic Acid, 0.5 ml in a 37° C. humidified atmosphere of 5% CO2/95% air. HMVEC-d were used for experiments between passages 4-8.
The responses to different compound treatments were examined using a crystal violet-based proliferation assay to test the effects of the compounds on cell proliferation. HMVEC-d were seeded in 96-well plates in complete medium at a density of 25,000 cells/cm^2 and allowed to attach in a humidified atmosphere of 5% CO2, 95% air and at 37° C. Cells were treated with the compounds at different concentrations in replicates wells, and cell proliferation was evaluated after 24 h. At the specific time point medium was removed, cells were fixed with 1% glutaraldehyde and stained with a 0.1% crystal violet solution (Pro-lab diagnostics) for 30 min. The plates were then washed extensively in water and air dried. Cell-associated dye was extracted with a 1% solution of Triton X100 and the absorbance was determined at 550 nm using a plate reader (Multiskan Ascent, Lab Systems).

[2] = tested on: hyaloid vasculature in zebrafish; experiment: Zebrafish developmental angiogenesis assay: number of primary branches of hyaloid vasculature on dissected lens; format: in vivo; conditions: for dose-dependence of inhibition of hyaloid vasculature development: increasing concentrations between 1-10 μM, 5 dpf; for inhibition of intraocular angiogenesis (hyaloid vessels) in library screen: 5 day old larvae
From the text: We have used the zebrafish model as an in vivo screen for chemical libraries as the small size and transparency of the zebra fish enables high-content screens in multi-well plate formats (MacRae and Peterson, 2003; Pichler et al., 2003; Peterson et al., 2004; den Hertog, 2005; Zon and Peterson, 2005). […] To identify anti-angiogenic drugs we used a transgenic line of zebrafish that expresses a fluorescent reporter (EGFP) specifically in vasculature (Tg(fli1:efgp)). This line was obtained from the Zebrafish International Resource Center. Our assay involved screening the effect of drugs in the library on the development of blood vessels in zebrafish. Specifically, we looked at the integrity of vessels developing in the eye (hyaloid vessels attached to the lens) and in the trunk.
All experiments were carried out under ethical approval granted by the UCD animal research ethics committee. Tg(fli1:EGFP) zebrafish were maintained according to standard procedures on a 14 hr light/10 hr dark cycle at 28° C. Referring to the schematic of FIG. 1A, embryos were obtained by natural spawning and developmental stages established by time and morphological criteria. A chemical library containing numerous compounds was screened (FIG. 1A). In this specific example, the chemical library contained 5000 compounds of the DIVERSet™ collection from ChemBridge Corp., USA. At 24 hours post fertilisation (hpf), 5 embryos per well were placed in […] of Embryo Medium/1% DMSO and incubated with drug at 28° C. on a 14 h light/10 h dark cycle. Larvae were euthanised, and fixed in 4% PFA at 4° C. overnight before analysis. (FIG. 1A).
Right lenses were dissected from the larvae and transferred to depression slides for observation under epi-fluorescence in the Olympus SZX16 and to cover-slip bottom Petri-dishes for confocal microscopy in a Zeiss UV510 META LSM system (20× and 40× inverted objectives). To achieve appropriate orientation, lenses were embedded in 10% methyl-cellulose and manipulated with a tungsten needle (0.5 mm diameter). Patterning of the hyaloid vessels on the treated larval lenses was compared to DMSO controls and the archetypal pattern previously described (Alvarez et al., 2007; Alvarez et al., 2009). The number of primary vessels radiating from the back of the lens (3-4 main branches at 5 dpf in controls and previously described), was counted and the average number was graphed for each drug. From screens of ˜1600 small molecules, four “hits” that inhibited the number of primary hyaloids vessels were identified (FIG. 1B).
To validate the “hits” from the library screen, dose-dependence experiments were conducted by screening the drugs in the assay described in Example 2 above but at a range of increasing concentrations between 1-10 μM. Larvae were maintained under the drug treatments at 28° C. on 14 hr light/10 hr dark cycle until 5 days post fertilisation (dpf), when they were euthanised and fixed in 4% PFA at 4° C. overnight before analysis. The average number of primary hyaloids branches was graphed for each concentration of drug. […] One of the lead compounds identified by the screen of chemical library was 11B which has the chemical name 2-[2-2-quinolinyl)vinyl]phenol and its structure shown below: […]

[3] = tested on: VEGF secreted from explant cultures of human colorectal cancers; experiment: VEGF secretion from human colorectal tumour explants (ELISA); format: cell-based; conditions: 72 hours
Method: (§1) Human colorectal tumour samples were taken directly from the pathology laboratory after surgery once adequate material was taken for diagnostic testing. The tumour samples were washed and stored in DMSO/tumour conditioning media (TCM). The samples were snap-frozen in liquid nitrogen and stored at −80° C. until compound testing was performed. Prior to compound testing, the tumours were thawed and incubated in fresh TCM for 24 hours. […] The TCM solutions were collected and stored at −20° C. and the remaining tumour explants were snap-frozen in liquid nitrogen and stored at −80° C. The protein content of each tumour sample was determined using the BCA protein assay. ELISA was used to determine the levels of VEGF, IL-8, MCP-1, GRO-α, IL-1β and IL-6. The secretion data were normalised according to the tumour sample's protein content.

[4] = tested on: zebrafish larvae; experiment: Gross morphology / toxicity and eye morphology of treated zebrafish larvae; format: in vivo; conditions: for toxic effects / gross morphology of larvae: treated 1-5 dpf
Method: Prior to analysis of the intraocular vasculature, the control and treated larvae were observed under an Olympus SZX16 stereo zoom microscope and screened for general malformations. Overall patterning of the vasculature (fin, gut and intersegmental vessels) was examined for abnormalities (FIGS. 7B and 9A).
Visual function was assessed using the optokinetic response, a behavioural assay that tests the ability of larval zebrafish to track moving stripes (Brockerhoff 2006). […] For these experiments the compounds were screened in zebrafish larvae as described above except that the drug (compound 11B) was added at either day 1, 2, 3 or 4, and all treated larvae were analysed at day 5.

[5] = tested on: IL-1β secreted from explant cultures of human colorectal cancers; experiment: IL-1β secretion from human colorectal tumour explants (ELISA); format: cell-based; conditions: 72 hours; for level of IL-1β secreted by human tumour explants: 1 μM and 10 μM tested, concentration not given at place; for level of IL-1b secreted by human tumour explants: 10 μM
Method: as §1

[6] = 5 μM, treated day 1-5, analysed 5 dpf
[7] = 10 μM, treated day 1-5, analysed 5 dpf
[8] = 1 μM and 10 μM tested, concentration not given at place

SMILES | effect on HMVEC-d proliferation [1] | number of primary branches of hyaloid vasculature ([2]; 4 μM, analysed 5 dpf) | number of primary branches of hyaloid vasculature [2, 6] | number of primary branches of hyaloid vasculature ([2]; 7.5 μM, analysed 5 dpf) | anti-angiogenic effect compared with Avastin, number of primary hyaloid branches ([2]; 10 μM) | number of primary branches of hyaloid vasculature [2, 7] | dose-dependence of inhibition of hyaloid vasculature development [2] | inhibition of intraocular angiogenesis (hyaloid vessels) in library screen [2] | level of VEGF secreted by human tumour explants [3, 8] | level of VEGF secreted by human tumour explants ([3]; 10 μM) | wholemount morphology of larvae ([4]; 10 μM, treated from day 2-5 or day 3-5) | toxic effects / gross morphology of larvae [4] | morphology of eyes in transverse sections (layering of the retina, size of retina/lens, presence of optic nerve) ([4]; treated larvae) | level of IL-1β secreted by human tumour explants [5] | level of IL-1b secreted by human tumour explants [5] | level of VEGF secreted by human tumour explants ([3]; 1 μM)
Oc1ccccc1/C=C/c1ccc2ccccc2n1 [11B] | no significant effect; also recorded: neither 11B nor 11F had a significant effect | significant inhibition | significant inhibition; also recorded: significant reduction | significant inhibition | more effective anti-angiogenic effect than Avastin | significant inhibition; also recorded: significant reduction | dose-dependent and statistically significant manner; also recorded: dose-dependent inhibition | inhibit intraocular angiogenesis | significantly reduced | significantly reduces | normal | do not induce toxic effects | normal | significantly reduced | significantly reduces | –
COc1cc2c(C3CCCN3C)cnc(Cc3ccc4c(c3)OCO4)c2cc1OC (centres unmarked) [11F, 1-(1,3-benzodioxol-5-ylmethyl)-6,7-dimethoxy-4-(1-methyl-2-pyrrolidinyl)isoquinoline] | no significant effect; also recorded: neither 11B nor 11F had a significant effect | – | significant inhibition | – | – | significant inhibition | dose-dependent and statistically significant manner | inhibit intraocular angiogenesis | significantly reduced | significantly reduced | – | do not induce toxic effects | – | significantly reduced | significantly reduced | significantly reduced
